Data: patent US20080234183A1, “Cell Penetrating Peptides” (priority 2002, published 2008)

Assays:
LoVo cells = test: Internalisation of biotinylated selCPPs, fluorescence microscopy; type: cell-based, human
Procedure: One aspect of the present invention thus comprises a method for screening the cellular uptake of a broad variety of CPPs in vitro, wherein cells are grown on glass cover slips to suitable, such as 50%, density, whereupon the media is changed to serum free and a blotinylated peptide solution is added. The cells are then incubated, washed, fixed and the peptides are visualised by staining with, e.g. avidin-FITC, or streptavidin-TRITC, and the cell nuclei are counterstained, e.g. with Hoechst. Images are preferably obtained with a fluorescence microscope and evaluated.
FIG. 5. Example of inactivated selCPP. Internalisation of YTA-2 (A) compared to YTA-2 ps (B) In LoVo cells, both biotynilated peptides detected by TRITC-avidin at 37° C.
The cells were grown on round glass cover slips (12 mm, GTF, Sweden) in a 24-well plate to approximately 50% confluence. The media was changed to serum free and the biotinylated peptide solutions were added. The cells were incubated for 30 min at 37 or 4° C. The cells were washed twice with PBS, fixed with 4% paraformaldehyde solution 15 min at room temperature (dark) and then permeabilised in 30 mM HEPES buffer containing 0.5% w/v Triton X-100, 3 min on Ice. Sites for unspecific binding were blocked In PBS containing 3% (w/v) bovine serum albumin, overnight at 4° C. The peptides were visualised by staining with avidin-FrTC or streptavidin-TRITC (Molecular Probes, the Netherlands). The cell nuclei were stained with Hoechst 33258 (0.5 μg/ml) for 5 min, after which the cover slips were washed 3 times with PBS and mounted in 25% glycerol in PBS. The images were obtained with a Leica DM IRE2 fluorescence microscope (Leica Microsystem., Sweden) and processed in PhotoShop 6.0 software (Adobe Systems Inc., CA) (See e.g. FIG. 38-40).

MMP2 = target: T1, MMP2 (Homo sapiens, UniProt P08253); test: Specific cleavage by matrix metallo proteinase-2; type: biochemical; settings: mass spectrometry, data not shown
T1 construct: check the specific cleavage of YTA-2 ps by active MMP-2
T1 sequence (P08253 110-660): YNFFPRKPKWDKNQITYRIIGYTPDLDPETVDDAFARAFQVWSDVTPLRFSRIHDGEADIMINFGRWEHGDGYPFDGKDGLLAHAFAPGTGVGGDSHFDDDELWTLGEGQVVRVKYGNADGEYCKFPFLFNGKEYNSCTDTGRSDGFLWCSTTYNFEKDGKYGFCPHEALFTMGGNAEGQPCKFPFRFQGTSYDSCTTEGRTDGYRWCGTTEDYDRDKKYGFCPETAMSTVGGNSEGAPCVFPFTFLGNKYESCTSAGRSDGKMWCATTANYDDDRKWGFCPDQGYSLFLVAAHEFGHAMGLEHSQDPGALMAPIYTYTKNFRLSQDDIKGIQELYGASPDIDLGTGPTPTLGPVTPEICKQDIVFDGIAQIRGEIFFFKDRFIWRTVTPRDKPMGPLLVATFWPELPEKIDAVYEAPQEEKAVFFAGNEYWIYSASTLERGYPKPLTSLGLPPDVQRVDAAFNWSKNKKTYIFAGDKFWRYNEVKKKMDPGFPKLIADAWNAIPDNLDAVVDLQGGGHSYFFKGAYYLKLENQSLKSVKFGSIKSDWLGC
Procedure: (data not shown). […] The next step in the development of this technique is to check the specific cleavage of YTA-2 ps by active MMP-2. It is performed by a fluorescence/quencher assay, wherein the MMP-2 substrate YTA-2 ps upon cleavage increases in fluorescence intensity. The correct cleavage is further checked by mass spectrometry.

cells = test: Protein internalisation by YTA-2 of Fluo-Streptavidin; type: cell-based; settings: 67 kDa fluorescein labelled streptavidin linked to biotinylated peptide
Procedure: FIG. 39. Protein internalisation by YTA-2 of Fluo-Streptavidin 37° C. and T/E, showing the delivery property of a selCPP.
FIG. 40. Protein internalisation by YTA-2 of Fluo-Streptavidin 4° C. and T/E, showing the delivery property and temperature independency of a selCPP.

Bowes cells = test: Cell viability measurement (CellTiter-Glo); type: cell-based, human; settings: 24 h in 10% FBS-MEM
Procedure: Bowes human melanoma cells were obtained from American Type Culture Collection (Manassas, Va.). Bowes cells were cultured in Minimal Essential Medium with Earie's sats complemented with Glutamax-I, non-essential amino acids, sodium pyruvate, penicillin, streptomycin (referred on figures as “MEM”) and 10% foetal bovine serum (FBS). All media components for Bowes cells were from invitrogen Corporation (Paisley, UK). Trypsin/EDTA was from PAA laboratories GmbH (Linz, Austria). Cells were subcultured once a week, seeding 200 000 cells per T75. For the viability assays, 50 000 cells (in 300 μl) were seeded per a well in a 24-well-plate a day before the experiment. K562 human erythroleukemia cells were obtained from American Type Culture Collection (Manassas, Va.). K562 cells were cultured in RPMI-1640 medium complemented with Glutamax-I, penicillin, streptomycin (referred in FIG. 32-35 as “RPMI”) and foetal bovine serum (7.5%). All media components for K562 cells were from invitrogen Corporation (Paisley, UK). […]
The stock solutions of the conjugates (1 mM) were prepared in sterile water and the stock solution of MTX in 10% DMSO in water. […] Then 300 μl was transferred to a white polystyrene FluoroNunc™ plate (Nunc A/S, Roskilde, Denmark) and luminescence was recorded at dual-scanning microplate spectrofluorometer (SPECTRAmax® GEMINI XS, Molecular Devices, Sunnyvale, Calif.).

## YTAIAWVKAFIRKLRK [YTA-2]
LoVo cells
  Comment (staining/localisation): stain also nuclear
LoVo cells; 37° and 4° C.
  Entry into cells: can efficiently enter cells
MMP2
  cleavage by MMP2: confirmed by mass spectrometry
cells
  cargo transport: can transport large cargo molecules into cells

## Apa-γGlu-Gly-pVEC
Bowes cells
  toxic effect on cell viability: more toxic than Apa-Glu-Gly-pVEC
